Measured values taken from publication PMC9078235 (RSC Advances, 2018).
pEC50: −log10 of the molar value.

target: Thrombin (≥1000 NIH U mg^−1 protein) prepared from human plasma (Homo sapiens, UniProt P00734); test: chromogenic thrombin activation assay, […] nm; type: biochemical

pEC50 | SMILES
3.63 | COc1cc(/C=C/C(=O)Nc2nc3ccccc3s2)cc(OC)c1OC [Q8, (E)-N-(Benzo[d]thiazol-2-yl)-3-(3,4,5-trimethoxyphenyl)acrylamide]
3.87 | CC(=O)Oc1ccc(/C=C/C(=O)Nc2nc3ccccc3s2)cc1 [Q2, (E)-4-(3-(Benzo[d]thiazol-2-ylamino)-3-oxoprop-1-en-1-yl)phenyl acetate]
3.90 | O=S(=O)(O)c1cc(O)ccc1O [etamsylate, reference compound]
